According to patent publication US12351570B2 (MERCK PATENT GMBH, priority 2018, dated 2025):

Tested on: MDA-MB-231 cells
Assay: Extracellular lactate production inhibition after 4 h, MDA-MB-231

IC50 (Homo sapiens, MDA-MB-231)	Compound	IC50 (Table 3, group class A-D, the table does not say which assay or cell line ("the assays described above"))
1000 to 100000 nM	O=C(O)c1ccc(C#Cc2ccccc2NS(=O)(=O)c2cccc3c2OCCO3)cc1 [Compound 254, 4-[2-(2,3-Dihydro-benzo[1,4]dioxine-5-sulfonylamino)-phenylethynyl]-benzoic acid]	
	COc1ccc(S(=O)(=O)Nc2ccc(F)cc2C#Cc2ccc(C(=O)NS(C)(=O)=O)nc2)c2ccccc12 [Compound 255, 4-Methoxy-naphthalene-1-sulfonic acid [4-fluoro-2-(6-methanesulfonyl-aminocarbonyl-pyridin-3-ylethynyl)-phenyl]-amide]	1000 to 100000 nM
1000 to 100000 nM	COc1ccc(S(=O)(=O)Nc2ccc(F)cc2C#Cc2ccc(C(=O)NC#N)nc2)c2ccccc12 [Compound 256, N-cyano-5-{2-[5-fluoro-2-(4-methoxynaphthalene-1-sulfonamido)-phenyl]ethynyl}pyridine-2-carboxamide]	
100 to 1000 nM	COc1cc(S(=O)(=O)Nc2ccccc2C#Cc2ccc(C(=O)O)cc2)cc2ccccc12 [Compound 258, 4-[2-(4-Methoxy-naphthalene-2-sulfonylamino)-phenylethynyl]-benzoic acid]	
1000 to 100000 nM	COc1ccc(S(=O)(=O)Nc2ccccc2C#Cc2ccc(C(N)=O)cc2)c2ccccc12 [Compound 261, 4-[2-(4-Methoxy-naphthalene-1-sulfonylamino)-phenylethynyl]-benzamide]	
1000 to 100000 nM	COc1ccc(S(=O)(=O)Nc2ccccc2C#Cc2ccc(C(=O)O)cc2)cc1OC [Compound 263, 4-[2-(3,4-Dimethoxy-benzenesulfonyl-amino)-phenylethynyl]-benzoic acid]	
10 to 100 nM	O=C(O)c1ccc(C#Cc2ccccc2NS(=O)(=O)c2cccc3c(Cl)ccnc23)cn1 [Compound 266, 5-[2-(4-Chloro-quinoline-8-sulfonylamino)-phenylethynyl]-pyridine-2-carboxylic acid]	
1000 to 100000 nM	O=C(O)c1ccc(C#Cc2cc(Cl)ccc2NS(=O)(=O)c2ccc(Cl)cc2)cc1 [Compound 269, 4-[5-Chloro-2-(4-chloro-benzenesulfonylamino)-phenylethynyl]-benzoic acid, reference compound]	
100 to 1000 nM	O=C(O)c1ccc(C#Cc2ccccc2NS(=O)(=O)c2cccc3cc(Cl)cnc23)cc1 [Compound 270, 4-[2-(3-Chloro-quinoline-8-sulfonyl-amino)-phenylethynyl]-benzoic acid]	
100 to 1000 nM	O=C(O)c1ccc(C#Cc2ccccc2NS(=O)(=O)c2cccc3cc(Cl)cnc23)cn1 [Compound 271, 5-[2-(3-Chloro-quinoline-8-sulfonyl-amino)-phenylethynyl]-pyridine-2-carboxylic acid]	
1000 to 100000 nM	O=C(O)c1ccc(C#Cc2ccccc2NS(=O)(=O)c2cccc3ncc(Cl)cc23)cc1 [Compound 272, 4-[2-(3-Chloro-quinoline-5-sulfonyl-amino)-phenylethynyl]-benzoic acid]	
1000 to 100000 nM	O=C(O)c1ccc(C#Cc2ccccc2NS(=O)(=O)c2cc(Cl)c(Cl)s2)cc1 [Compound 275, 4-{2-[2-(4,5-dichlorothiophene-2-sulfonamido)phenyl]ethynyl}benzoic acid]	
1000 to 100000 nM	O=C(O)c1ccc(C#Cc2ccccc2NS(=O)(=O)c2cc3ccccc3s2)cc1 [Compound 276, 4-{2-[2-(1-benzothiophene-2-sulfonamido)phenyl]ethynyl}benzoic acid]	
100 to 1000 nM	COc1cc(C)c(S(=O)(=O)Nc2ccccc2C#Cc2ccc(C(=O)O)nc2)c(C)c1C [Compound 277, 5-{2-[2-(4-methoxy-2,3,6-trimethyl-benzenesulfonamido)phenyl]ethynyl}-pyridine-2-carboxylic acid]	
1000 to 100000 nM	O=C(O)c1ccc(C#Cc2ccccc2NS(=O)(=O)c2cccn3ccnc23)cn1 [Compound 278, 5-[2-(Imidazo[1,2-a]pyridine-8-sulfonyl-amino)-phenylethynyl]-pyridine-2-carboxylic acid]	
1000 to 100000 nM	O=C(O)c1ncc(C#Cc2ccccc2NS(=O)(=O)c2cccc3ccccc23)cc1F [Compound 279, 3-fluoro-5-{2-[2-(naphthalene-1-sulfon-amido)phenyl]ethynyl}pyridine-2-carboxylic acid]	
1000 to 100000 nM	O=C(O)c1ccc(C#Cc2cc(Cl)ccc2NS(=O)(=O)c2ccc(Cl)cc2)cn1 [Compound 280, 5-{2-[5-chloro-2-(4-chlorobenzene-sulfonamido)phenyl]ethynyl}pyridine-2-carboxylic acid]	
100 to 1000 nM	O=C(O)c1ccc(C#Cc2ccccc2NS(=O)(=O)c2cc3cc(Cl)ccc3s2)cc1 [Compound 281, 4-{2-[2-(5-chloro-1-benzothiophene-2-sulfonamido)phenyl]ethynyl}benzoic acid]	

IC50 (Homo sapiens, MDA-MB-231)	Compound	IC50 (Table 3, group class A-D, the table does not say which assay or cell line ("the assays described above"))
1000 to 100000 nM	CSc1nccc(-c2ccc(S(=O)(=O)Nc3ccccc3C#Cc3ccc(C(=O)O)cc3)s2)n1 [Compound 282, 4-[2-(2-{5-[2-(methylsulfanyl)pyrimidin-4-yl]thiophene-2-sulfonamido}phenyl)-ethynyl]benzoic acid]	
1000 to 100000 nM	O=C(O)c1ncc(C#Cc2ccccc2NS(=O)(=O)c2cccc3ccccc23)cc1C(F)(F)F [Compound 283, 5-{2-[2-(naphthalene-1-sulfon-amido)phenyl]ethynyl}-3-(trifluoro-methyl)pyridine-2-carboxylic acid]	
10 to 100 nM	CCOc1ccc(S(=O)(=O)Nc2ccccc2C#Cc2ccc(C(=O)O)nc2)c2ccccc12 [Compound 284, 5-{2-[2-(4-ethoxynaphthalene-1-sulfonamido)phenyl]ethynyl}pyridine-2-carboxylic acid]	
100 to 1000 nM	O=C(O)c1ccc(C#Cc2ccc(F)cc2NS(=O)(=O)c2cccc3ccccc23)cn1 [Compound 285, 5-{2-[4-fluoro-2-(naphthalene-1-sulfonamido)phenyl]ethynyl}pyridine-2-carboxylic acid]	
100 to 1000 nM	O=C(O)c1ccc(C#Cc2ccccc2NS(=O)(=O)c2ccc3oc4ccccc4c3c2)cn1 [Compound 286, 5-[2-(2-{8-oxatricyclo[7.4.0.0^2,7]trideca-1(9),2(7),3,5,10,12-hexaene-4-sulfonamido}phenyl)ethynyl]pyridine-2-carboxylic acid]	
1000 to 100000 nM	COc1ccc(S(=O)(=O)Nc2ccccc2C#Cc2ccc(C(=O)O)nc2)c(Cl)c1 [Compound 287, 5-{2-[2-(2-chloro-4-methoxybenzene-sulfonamido)phenyl]ethynyl}pyridine-2-carboxylic acid]	
1000 to 100000 nM	Cc1cc(S(=O)(=O)Nc2ccccc2C#Cc2ccc(C(=O)O)nc2)c2cc(C)ncc2c1 [Compound 288, 5-{2-[2-(3,7-dimethylisoquinoline-5-sulfonamido)phenyl]ethynyl}pyridine-2-carboxylic acid]	
100 to 1000 nM	O=C(O)c1ccc(C#Cc2ccccc2NS(=O)(=O)c2cccc3c(Cl)cccc23)cn1 [Compound 289, 5-{2-[2-(5-chloronaphthalene-1-sulfonamido)phenyl]ethynyl}pyridine-2-carboxylic acid]	
1000 to 100000 nM	Cc1ccc2nsnc2c1S(=O)(=O)Nc1ccccc1C#Cc1ccc(C(=O)O)nc1 [Compound 290, 5-{2-[2-(5-methyl-2,1,3-benzothia-diazole-4-sulfonamido)phenyl]-ethynyl}pyridine-2-carboxylic acid]	
10 to 100 nM	O=C(O)c1ccc(C#Cc2ccccc2NS(=O)(=O)c2ccc(-c3ccccc3)cc2)cn1 [Compound 291, 5-[2-(2-{[1,1′-biphenyl]-4-sulfonamido}phenyl)ethynyl]pyridine-2-carboxylic acid]	
1000 to 100000 nM	O=C(O)c1ccc(C#Cc2ccccc2NS(=O)(=O)c2cccc3nsnc23)cn1 [Compound 292, 5-{2-[2-(2,1,3-benzothiadiazole-4-sulfonamido)phenyl]ethynyl}pyridine-2-carboxylic acid]	
100 to 1000 nM	Cc1ccccc1-c1ccc(S(=O)(=O)Nc2ccccc2C#Cc2ccc(C(=O)O)nc2)cc1 [Compound 293, 5-[2-(2-{2′-methyl-[1,1′-biphenyl]-4-sulfonamido}phenyl)ethynyl]pyridine-2-carboxylic acid]	
100 to 1000 nM	O=C(O)c1ccc(C#Cc2ccccc2NS(=O)(=O)c2cc(F)cc3cccnc23)cn1 [Compound 294, 5-{2-[2-(6-fluoroquinoline-8-sulfonamido)phenyl]ethynyl}pyridine-2-carboxylic acid]	
10 to 100 nM	CC(C)Oc1ccc(S(=O)(=O)Nc2ccccc2C#Cc2ccc(C(=O)O)nc2)c2ccccc12 [Compound 295, 5-(2-{2-[4-(propan-2-yloxy)naphthalene-1-sulfonamido]phenyl}ethynyl)pyridine-2-carboxylic acid]	
1000 to 100000 nM	Cn1ccc2cccc(S(=O)(=O)Nc3ccccc3C#Cc3ccc(C(=O)O)nc3)c21 [Compound 296, 5-{2-[2-(1-methyl-1H-indole-7-sulfonamido)phenyl]ethynyl}pyridine-2-carboxylic acid]	
1000 to 100000 nM	O=C(O)c1ccc(C#Cc2ccccc2NS(=O)(=O)c2ccc3occc3c2)cn1 [Compound 297, 5-{2-[2-(1-benzofuran-5-sulfonamido)phenyl]ethynyl}pyridine-2-carboxylic acid]	
10 to 100 nM	O=C(O)c1ccc(C#Cc2ccccc2NS(=O)(=O)c2cccc3c(Cl)c(Cl)cnc23)cn1 [Compound 298, 5-{2-[2-(3,4-dichloroquinoline-8-sulfonamido)phenyl]ethynyl}pyridine-2-carboxylic acid]	

Compound	IC50 (Homo sapiens, MDA-MB-231)	IC50 (Table 3, group class A-D, the table does not say which assay or cell line ("the assays described above"))
Cc1cnc2c(S(=O)(=O)Nc3ccccc3C#Cc3ccc(C(=O)O)nc3)cccc2c1 [Compound 262, 5-[2-(3-Methyl-quinoline-8-sulfonyl-amino)-phenylethynyl]-pyridine-2-carboxylic acid]	100 to 1000 nM	
Cc1ccnc2c(S(=O)(=O)Nc3ccccc3C#Cc3ccc(C(=O)O)nc3)cccc12 [Compound 264, 5-[2-(4-Methyl-quinoline-8-sulfonyl-amino)-phenylethynyl]-pyridine-2-carboxylic acid]	100 to 1000 nM	
Cc1cc(S(=O)(=O)Nc2ccccc2C#Cc2ccc(C(=O)O)nc2)c2ncccc2c1 [Compound 265, 5-[2-(6-Methyl-quinoline-8-sulfonyl-amino)-phenylethynyl]-pyridine-2-carboxylic acid]	100 to 1000 nM	
Cc1ccc2cccc(S(=O)(=O)Nc3ccccc3C#Cc3ccc(C(=O)O)nc3)c2n1 [Compound 267, 5-[2-(2-Methyl-quinoline-8-sulfonylamino)-phenylethynyl]-pyridine-2-carboxylic acid]	100 to 1000 nM	
